Data: patent US20090275594A1, “3-HYDRAZONE PIPERAZINYL RIFAMYCIN DERIVATIVES USEFUL AS ANTIMICROBIAL AGENTS” (priority 2008, published 2009)
In brackets after ≈: the same amount, converted by molar mass.

How the values were obtained:
Assay type in all cases: cell-based
Conditions in all cases: cation adjusted Mueller-Hinton broth, 35° C., 16-20 hours
[1] = tested on: Methicillin-resistant Staphylococcus aureus OC 3726 COL; experiment: In vitro antibacterial activity, microdilution broth MIC (NCCLS M7-A4), strain C
Protocol: (§1) Minimum inhibitory concentration (MIC) is an indicator of in vitro antibacterial activity. […] The in vitro antimicrobial activity of representative compounds of the present invention was determined by the microdilution broth method following the test method from the National Committee for Clinical Laboratory Standards (NCCLS). This method is described in the NCCLS Document M7-A4, Vol. 17, No. 2, “Methods for Dilution Antimicrobial Susceptibility Test for Bacteria that Grow Aerobically—Fourth Edition”, which is incorporated herein by reference.
(§2) In this method two-fold serial dilutions of drug in cation adjusted Mueller-Hinton broth were added to wells in microdilution trays. The test organisms were prepared by adjusting the turbidity of actively growing broth cultures so that the final concentration of test organism after it is added to the wells was approximately 5×10^4 CFU/well. Following inoculation of the microdilution trays, the trays were incubated at 35° C. for 16-20 hours and then read. The amount of growth in the wells containing the test compound was compared with the amount of growth in the growth-control wells (no test compound) used in each tray.

[2] = tested on: Staphylococcus aureus ATCC 29213; experiment: In vitro antibacterial activity, microdilution broth MIC (NCCLS M7-A4), strain B
Protocol: as §1, §2

[3] = tested on: Enterococcus faecium OC 3312 vancomycin-resistant; experiment: In vitro antibacterial activity, microdilution broth MIC (NCCLS M7-A4), strain A
Protocol: as §1, §2

[4] = tested on: Staphylococcus aureus OC4172; experiment: In vitro antibacterial activity, microdilution broth MIC (NCCLS M7-A4), strain D
Protocol: as §1, §2

| Structure (SMILES) | MIC (μg/mL) C Strain [1] [µg/mL] | MIC (μg/mL) B Strain [2] [µg/mL] | MIC (μg/mL) A Strain [3] [µg/mL] | MIC (μg/mL) D Strain [4] |
| --- | --- | --- | --- | --- |
| COC1C=COC2(C)Oc3c(C)c(O)c4c(O)c(c(C=NN5CCN(Cc6ccc(-c7ccccc7)s6)CC5)c(O)c4c3C2=O)NC(=O)C(C)=CC=CC(C)C(O)C(C)C(O)C(C)C(OC(C)=O)C1C (stereo not drawn) [Compound 20] | 1 (≈ 1.02 µM) | 2 (≈ 2.04 µM) | 2 (≈ 2.04 µM) | 2 µg/mL (≈ 2.04 µM) |
| COC1C=COC2(C)Oc3c(C)c(O)c4c(O)c(c(C=NN5CCN(Cc6cc(-c7ccc(NC(C)=O)cc7)no6)CC5)c(O)c4c3C2=O)NC(=O)C(C)=CC=CC(C)C(O)C(C)C(O)C(C)C(OC(C)=O)C1C (stereo not drawn) [Compound 16] | 0.06 (≈ 0.0586 µM) | 0.06 (≈ 0.0586 µM) | 0.12 (≈ 0.117 µM) | ≦0.03 μg/mL |
| COC1C=COC2(C)Oc3c(C)c(O)c4c(O)c(c(C=NN5CCN(Cc6cc(-c7ccc(Cl)cc7Cl)no6)CC5)c(O)c4c3C2=O)NC(=O)C(C)=CC=CC(C)C(O)C(C)C(O)C(C)C(OC(C)=O)C1C (stereo not drawn) [Compound 4] | 0.5 (≈ 0.483 µM) | 1 (≈ 0.966 µM) | 1 (≈ 0.966 µM) | 1 µg/mL (≈ 0.966 µM) |
